Measurements: patent publication US4007177A, “Cephalosporin derivatives” (Sankyo Company Limited, priority 1973, dated 1977)
Values after ≈ are worked out from the molar mass of the structure shown. Like-named read-outs stand apart in the source and are kept apart here.

How the values were obtained:
Format in all cases: cell-based
[1] = test system: Sh. flexneri 2a; test: Minimum inhibitory concentration, Sh. flexneri 2a; settings: Shigella flexneri
Protocol: (§1) Minimum inhibitory concentrations (MIC) were determined for the compounds of this invention.

[2] = test system: S.aureus R; test: Minimum inhibitory concentration, S.aureus R; settings: Staphylococcus aureus
Protocol: as §1

[3] = test system: Salm. ent. Gaertner; test: Minimum inhibitory concentration, Salm. ent. Gaertner; settings: read-out: Minimum Inhibitory Concentration
Protocol: as §1

[4] = test system: Klebsiella 806; test: Minimum inhibitory concentration, Klebsiella 806
Protocol: as §1

[5] = test system: S.aureus 209p; test: Minimum inhibitory concentration, S.aureus 209p; settings: Staphylococcus aureus
Protocol: as §1

[6] = test system: E. coli 609 (R); test: Minimum inhibitory concentration, E. coli 609 (R); settings: Escherichia coli, read-out: Minimum Inhibitory Concentration
Protocol: as §1

[7] = test system: Prot. vulgaris; test: Minimum inhibitory concentration, Prot. vulgaris; settings: Proteus vulgaris
Protocol: as §1

[8] = test system: E. coli NIHJ; test: Minimum inhibitory concentration, E. coli NIHJ; settings: Escherichia coli
Protocol: as §1

[9] = test system: Klebsiella 846; test: Minimum inhibitory concentration, Klebsiella 846
Protocol: as §1

| Structure (SMILES) | MIC [1] [µg/mL] | MIC [2] [µg/mL] | MIC ([3]; Salm. ent. Gaertner) [µg/mL] | MIC [4] [µg/mL] | MIC [5] [µg/mL] | MIC ([6]; E. coli 609 (R)) [µg/mL] | MIC [7] [µg/mL] | MIC [8] [µg/mL] | MIC [9] [µg/mL] | MIC [3] [µg/mL] | MIC [6] [µg/mL] |
| --- | --- | --- | --- | --- | --- | --- | --- | --- | --- | --- | --- |
| COC1(NC(=O)CS(=O)(=O)CCC#N)C(=O)N2C(C(=O)O)=C(CSc3nnnn3C)CSC21 (stereo not drawn) [NCCH2 CH2 SO2, 7β-(2-Cyanoethylsulfonyl)acetamido-7α-methoxy-3-(1-methyl-1H-tetrazol-5-yl)thiomethyl-3-cephem-4-carboxylic acid] | 3.1 (≈ 5.99 µM) | 3.1 (≈ 5.99 µM) | 0.8 (≈ 1.55 µM) | 1.5 (≈ 2.9 µM) | 1.5 (≈ 2.9 µM) | 1.5 (≈ 2.9 µM) | 6.2 (≈ 12 µM) | 1.5 (≈ 2.9 µM) | 200 (≈ 386 µM) | – | – |
| COC1(NC(=O)CSCCO)C(=O)N2C(C(=O)O)=C(CSc3nnnn3C)CSC21 (stereo not drawn) [HOCH2 CH2 S, 7β-(2-Hydroxyethyl)thioacetamido-7α-methoxy-3-(1-methyl-1H-tetrazol-5-yl)thiomethyl-3-cephem-4-carboxylic acid] | 3.1 (≈ 6.5 µM) | 1.5 (≈ 3.15 µM) | 1.5 (≈ 3.15 µM) | 1.5 (≈ 3.15 µM) | 0.8 (≈ 1.68 µM) | 1.5 (≈ 3.15 µM) | 6.2 (≈ 13 µM) | 1.5 (≈ 3.15 µM) | 400 (≈ 839 µM) | – | – |
| CCS(=O)(=O)CC(=O)N[C@]1(OC)C(=O)N2C(C(=O)O)=C(CSc3nnnn3C)CS[C@@H]21 [C2 H 5 SO2, 7β-Ethylsulfonylacetamido-7α-methoxy-3-(1-methyl-1H-tetrazol-5-yl)thiomethyl-3-cephem-4-carboxylic acid] | 1.5 (≈ 3.05 µM) | 1.5 (≈ 3.05 µM) | 0.8 (≈ 1.62 µM) | 1.5 (≈ 3.05 µM) | 1.5 (≈ 3.05 µM) | 1.5 (≈ 3.05 µM) | 6.2 (≈ 12.6 µM) | 1.5 (≈ 3.05 µM) | > 400 | – | – |
| CO[C@@]1(NC(=O)CSCN=[N+]=[N-])C(=O)N2C(C(=O)O)=C(COC(N)=O)CS[C@@H]21 [N3 CH2 S, OCONH2, 7β-Azidomethylthioacetamido-3-carbamoyloxymethyl-7α-methoxy-3-cephem-4-carboxylic acid] | 3.1 (≈ 7.17 µM) | 1.5 (≈ 3.47 µM) | 1.5 (≈ 3.47 µM) | 3.1 (≈ 7.17 µM) | 0.2 (≈ 0.462 µM) | 6.2 (≈ 14.3 µM) | 3.1 (≈ 7.17 µM) | 3.1 (≈ 7.17 µM) | > 400 | – | – |
| COC1(NC(=O)CS(C)(=O)=O)C(=O)N2C(C(=O)O)=C(CSc3nnnn3C)CSC21 (stereo not drawn) [CH3 SO2, 7α-Methoxy-7β-methylsulfonylacetamido-3-(1-methyl-1H-tetrazol-5-yl)thiomethyl-3-cephem-4-carboxylic acid] | 1.5 (≈ 3.13 µM) | – | 0.4 (≈ 0.836 µM) | 0.8 (≈ 1.67 µM) | 0.8 (≈ 1.67 µM) | – | – | – | 400 (≈ 836 µM) | – | – |
| COC1(NC(=O)Cc2ccccc2)C(=O)N2C(C(=O)O)=C(COC(N)=O)CSC21 (stereo not drawn) [C6 H5, reference compound] | 12.5 (≈ 29.7 µM) | 3.1 (≈ 7.36 µM) | – | 25 (≈ 59.3 µM) | 0.8 (≈ 1.9 µM) | 25 (≈ 59.3 µM) | 25 (≈ 59.3 µM) | 25 (≈ 59.3 µM) | > 400 | 12.5 (≈ 29.7 µM) | – |
| COC1(NC(=O)CSc2ccon2)C(=O)N2C(C(=O)O)=C(COC(C)=O)CSC21 (stereo not drawn) [3-Acetoxymethyl-7β-(3-isoxazolylthioacetamido)-7α-methoxy-3-cephem-4-carboxylic acid] | 6.2 (≈ 14 µM) | 0.8 (≈ 1.8 µM) | – | – | 0.2 (≈ 0.451 µM) | – | – | – | > 400 | – | – |
| COC1(NC(=O)C[n+]2cc([O-])on2)C(=O)N2C(C(=O)O)=C(CSc3nnnn3C)CSC21 (stereo not drawn) | 1.5 (≈ 3.1 µM) | 1.5 (≈ 3.1 µM) | 0.8 (≈ 1.65 µM) | 1.5 (≈ 3.1 µM) | 0.8 (≈ 1.65 µM) | 1.5 (≈ 3.1 µM) | 6.2 (≈ 12.8 µM) | 1.5 (≈ 3.1 µM) | > 200 | – | – |
| COC1(NC(=O)COc2ccon2)C(=O)N2C(C(=O)O)=C(CSc3nnnn3C)CSC21 (stereo not drawn) | 3.1 (≈ 6.41 µM) | 0.8 (≈ 1.65 µM) | 1.5 (≈ 3.1 µM) | 3.1 (≈ 6.41 µM) | 0.2 (≈ 0.414 µM) | 3.1 (≈ 6.41 µM) | 6.2 (≈ 12.8 µM) | 3.1 (≈ 6.41 µM) | > 400 | – | – |
| COC1(NC(=O)CSCN=[N+]=[N-])C(=O)N2C(C(=O)O)=C(CSc3nnnn3C)CSC21 (stereo not drawn) [N3 CH2 S] | 1.5 (≈ 3.08 µM) | 0.4 (≈ 0.82 µM) | 0.8 (≈ 1.64 µM) | 3.1 (≈ 6.36 µM) | 0.4 (≈ 0.82 µM) | 3.1 (≈ 6.36 µM) | 1.5 (≈ 3.08 µM) | 3.1 (≈ 6.36 µM) | > 200 | – | – |
| C#CCSCC(=O)NC1(OC)C(=O)N2C(C(=O)O)=C(CSc3nnnn3C)CSC21 (stereo not drawn) [HCCCH2 S, 3-(1-Methyl-1H-tetrazol-5-yl)thiomethyl-7β-propargylthioacetamido-7α-methoxy-3-cephem-4-carboxylic acid] | 3.1 (≈ 6.59 µM) | 0.8 (≈ 1.7 µM) | 0.8 (≈ 1.7 µM) | – | 0.2 (≈ 0.425 µM) | – | – | – | 400 (≈ 850 µM) | – | – |
| CC(=O)OCC1=C(C(=O)O)N2C(=O)[C@@H](NC(=O)Cc3cccs3)[C@H]2SC1 [Cephalothin, reference compound] | 12.5 (≈ 31.5 µM) | – | 6.2 (≈ 15.6 µM) | 6.2 (≈ 15.6 µM) | – | – | 6.2 (≈ 15.6 µM) | 6.2 (≈ 15.6 µM) | > 200 | – | 25 (≈ 63.1 µM) |
| COC1(NC(=O)CSc2ccon2)C(=O)N2C(C(=O)O)=C(CSc3nnnn3C)CSC21 (stereo not drawn) | 3.1 (≈ 6.21 µM) | 0.8 (≈ 1.6 µM) | 0.8 (≈ 1.6 µM) | 6.2 (≈ 12.4 µM) | 0.2 (≈ 0.4 µM) | 3.1 (≈ 6.21 µM) | 3.1 (≈ 6.21 µM) | 3.1 (≈ 6.21 µM) | > 400 | – | – |
